4 molecules from patent US6620817B1, “[5-CHLORO-6-PHENYL-2-(4-TRIFLUOROMETHYLPHENYL)-4-PYRIMIDINYLAMINO]ACETAMIDE DERIVATIVES, PROCESS FOR PRODUCING THE SAME, MEDICINAL COMPOSITIONS CONTAINING THE SAME AND INTERMEDIATE OF THESE COMPOUNDS” (Dainippon Pharmaceutical Co., Ltd., priority 1999, dated 2003) can be followed below.

The subject of one series is male mice of ICR strain. Nature of the series: Subacute toxicity test (repetitive oral administration for 14 days). In kind it is in vivo. Also on record: key to ALT (alanine aminotransferase), significance vs solvent-treated control: −: no significant differences (Student's t-test); +: p < 0.05 (Student's t-test); ++: p < 0.01 (Student's t-test). Conditions: for ALT (alanine aminotransferase), significance vs solvent-treated control: blood plasma; for ALT (alanine aminotransferase), significance vs solvent-treated control / Other remarks: male ICR mice; for Other remarks: remarks observed during the 14-day oral test; for ALT (alanine aminotransferase) vs vehicle-treated control group (in words) / AST (aspartate aminotransferase) vs vehicle-treated control group / BUN (blood urea nitrogen) vs vehicle-treated control group / wet-weights of various organs such as liver, spleen vs vehicle-treated control group / change in the body weight during the test vs vehicle-treated control group: 14 days oral; for ALT (alanine aminotransferase) vs vehicle-treated control group (in words) / AST (aspartate aminotransferase) vs vehicle-treated control group: parameter for liver dysfunction; for BUN (blood urea nitrogen) vs vehicle-treated control group: parameter for renal dysfunction; for wet-weights of various organs such as liver, spleen vs vehicle-treated control group: weight per body; for change in the body weight during the test vs vehicle-treated control group: even at a high dose of 300 mg/kg. The method, then:
Subacute toxicity test was carried out by repetitive administration of a test compound to mice for 14 days. That is, a test compound was orally administered to male mice of ICR strain once a day for 14 days. On the day following the final administration, the mice were anesthetized with Nembutal, and the blood was taken out therefrom, and further various organs were taken out. The wet-weight of each organ was determined, and was converted into a weight per body, and then compared. The blood plasma was subjected to various biochemical tests, mainly to tests for parameters for liver function and renal function. The results of these tests were statistically compared with those in the solvent-treated control group. The data of the biochemical tests, for example, ALT (alanine aminotransferase) as a parameter for liver dysfunction and other remarks observed during the test (see the column of “other remarks” in Table 3) are shown in Table 3.

The test system of series [1] is collagen-induced arthritis. Nature of the series: Collagen-induced arthritis inhibitory test. In kind it is in vivo, mice. Conditions: for Inhibitory rate: score of arthritis on the 52nd day after the first immunization vs control group, male DBA/IJ mice. The method, then: Collagen-induced arthritis inhibitory test is an experimental model for rheumatoid arthritis reported by Trethan, D. E. et al. [cf. […] J. Immunol., 140, 78-83 (1988)].
Collagen-induced arthritis inhibitory test was carried out according to the method of Kakimoto, K. et al. (cf. above reference of Kakimoto, K. et al.) with slight modification. That is, solubilized bovine cartilage type II collagen (product of Elastine Products, U.S.A.) was emulsified in complete Freund's adjuvant (product of DIFCO Lab., U.S.A.) to give a homogeneous emulsion. Male mice of DBA/IJ strain (6 week-old; product of Nippon Charles River, Japan) were immunized by injection at the base of the tail with 150 μg of the emulsified collagen. Twenty one days after the first immunization, arthritis was induced by a booster immunization of 150 μg of the emulsified collagen prepared in the same manner as above at the base of the tail again. A test compound was orally administered 5 days a week except for Saturdays and Sundays, which was started on the day of the first immunization and continued until the termination of the experiment. Mice were daily observed since the 8th day after the booster immunization for the onset of arthritis, and an arthritic score was derived by grading the severity of involvement of each paw five scales according to the method of Wood, F. D. et al. [cf. Int. Arch. Allergy Appl. The severity of arthritis was estimated by the sum of the scores of all 4 paws of both forepaws and both hind paws, and the onset of the disease was considered when score 1 was observed.
The inhibitory rate was obtained by comparing the score of arthritis on the 52nd day after the first immunization with that of the control group.

The mark [2] stands for this setting: dose 100 mg/kg orally once a day for 14 days.
Where [3] appears, read: dose 200 mg/kg orally once a day for 14 days.
The mark [4] stands for this setting: dose 300 mg/kg orally once a day for 14 days.

Structures are written as SMILES.

Consider `Cc1nc(-c2ccc(C(F)(F)F)cc2)nc(NCC(=O)N(C)C)c1C` [Reference Example B, 2-[5,6-dimethyl-2-(4-trifluoro-methylphenyl)-4-pyrimidinylamino]-N,N-dimethylacetamide], for which, in the series on male mice of ICR strain (dose 100 mg/kg), the “side effect on liver and kidney” value is “potent side effect on liver and kidney”. Moreover, the “ALT (alanine aminotransferase), significance vs solvent-treated control” value (shortened to “ALT … significance vs solvent-treated control”) with male mice of ICR strain (setting [2]) is “++ (p < 0.01 (Student's t-test))”. Moreover, the Other remarks entry with male mice of ICR strain was “peritoneal fluid, renal damage”. Besides, the Inhibitory rate in series [1] (dose 0.3 mg/kg orally) is recorded as 0.0%; in series [1] (dose 1 mg/kg orally), 41.8%; in series [1] (dose 3 mg/kg orally), 63.9%; in series [1] (dose 10 mg/kg orally), 97.6%. The “anti-rheumatoid activity compared with Examples 1 and 2” value in series [1] (dose 3 mg/kg or less) was “weaker than the compounds of Example 1 and Example 2”; in series [1] (dose 10 mg/kg) it was “as potent as the compounds of Example 1 and Example 2”.

Consider `CCCN(CCC)C(=O)CNc1nc(-c2ccc(C(F)(F)F)cc2)nc(C)c1C` [Reference Example A, 2-[5,6-dimethyl-2-(4-trifluoro-methylphenyl)-4-pyrimidinylamino]-N,N-dipropylacetamide, reference compound], for which the “effect on the above parameters (body weight, organ weights, ALT, AST, BUN)” value with male mice of ICR strain (dose 100 mg/kg) is on record as “did not affect”. Further, the figures for the “ALT … significance vs solvent-treated control” value in the series with male mice of ICR strain (setting [2]), in the series on male mice of ICR strain (setting [3]) and with male mice of ICR strain (setting [4]) were “−”, “−” and “+ (p < 0.05 (Student's t-test))”, respectively. The “effect on the liver” value in the series with male mice of ICR strain (high dose of 300 mg/kg) is “did affect the liver in some degree”. The Other remarks result in the series with male mice of ICR strain was “no particular remark”. Further, in series [1] (dose 3 mg/kg), the “inhibitory effects (in words)” value was “hardly showed any inhibitory effects”. In addition, the Inhibitory rate turned out to be 15.5% in series [1] (dose 3 mg/kg orally) and 73.2% in series [1] (dose 10 mg/kg orally).

Take `CN(C)C(=O)CNc1nc(-c2ccc(C(F)(F)F)cc2)nc(-c2ccccc2)c1Cl` [Example 1, 2-[5-chloro-6-phenyl-2-(4-trifluoromethylphenyl)-4-pyrimidinylamino]-N,N-dimethylacetamide]: in the series on male mice of ICR strain, the “ALT (alanine aminotransferase) vs vehicle-treated control group (in words)” value is listed as “not significantly different”; the “AST (aspartate aminotransferase) vs vehicle-treated control group” value is listed as “not significantly different”; the “BUN (blood urea nitrogen) vs vehicle-treated control group” value is recorded as “not significantly different”; the “wet-weights of various organs such as liver, spleen vs vehicle-treated control group” value was “not significantly different”. Further, in the series on male mice of ICR strain, the “change in the body weight during the test vs vehicle-treated control group” value was “not significantly different” and the Other remarks result is “no particular remark”. The “ALT … significance vs solvent-treated control” value in the series on male mice of ICR strain (setting [2]) is given as “−”. In addition, the “ALT … significance vs solvent-treated control” value in the series with male mice of ICR strain (setting [3]) was “−”. Moreover, the “ALT … significance vs solvent-treated control” value in the series on male mice of ICR strain (setting [4]) was “−”. Also, the Inhibitory rate in series [1] (dose 0.3 mg/kg orally) is listed as 20.0%. In addition, the Inhibitory rate in series [1] (dose 10 mg/kg orally) stood at 96.0%.

Consider `CN(C(=O)CNc1nc(-c2ccc(C(F)(F)F)cc2)nc(-c2ccccc2)c1Cl)C1CC1` [Example 2, 2-[5-chloro-6-phenyl-2-(4-trifluoromethylphenyl)-4-pyrimidinylamino]-N-cyclopropyl-N-methylacetamide], for which, in the series on male mice of ICR strain, the “ALT (alanine aminotransferase) vs vehicle-treated control group (in words)” value is reported as “not significantly different”; the “AST (aspartate aminotransferase) vs vehicle-treated control group” value is recorded as “not significantly different”; the “BUN (blood urea nitrogen) vs vehicle-treated control group” value was “not significantly different”; the “wet-weights of various organs such as liver, spleen vs vehicle-treated control group” value was “not significantly different”. In the series on male mice of ICR strain, the “change in the body weight during the test vs vehicle-treated control group” value was “not significantly different” and the Other remarks entry is “no particular remark”. Besides, in the series on male mice of ICR strain (setting [2]), the “ALT … significance vs solvent-treated control” value is on record as “−”. For the same molecule, in the series on male mice of ICR strain (setting [3]), the “ALT … significance vs solvent-treated control” value is recorded as “−”. Further, the “ALT … significance vs solvent-treated control” value in the series on male mice of ICR strain (setting [4]) is listed as “−”. In addition, the Inhibitory rate in series [1] (dose 0.3 mg/kg orally) is 29.1%. In series [1] (dose 10 mg/kg orally), this molecule gave an Inhibitory rate of 96.6%.
